Key:
[1] = system: MOLM-14 (acute myeloid leukemia) cell line; assay: CellTiter-Glo luminescent cell viability assay, MOLM-14; assay type: cell-based, human; settings: Homo sapiens; for viability at 4 µM: MOLM-14, compound at 4 μM; for viability at 4 µM / viability at 10 µM: 72 h; for viability at 10 µM: MOLM-14, compound at 10 μM; for EC50: MOLM-14 cell line, 72 h incubation, CellTiter-Glo, read-out: EC50, growth inhibition of MOLM-14
Summary of the method: (§1)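 72 h compound exposure, 37 °C, 5% CO2, 10% FBS medium; ATP luminescence read after 30 min RT equilibration. Viability as % of H2O/DMSO diluent control; EC50 = dose giving 50% of control signal. Duplicate points minimum.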

[2] = system: A375 (malignant melanoma) cell line; assay: CellTiter-Glo luminescent cell viability assay, A375; assay type: cell-based, human; settings: Homo sapiens, A-375; for viability at 4 µM: A375, compound at 4 μM; for viability at 4 µM / viability at 10 µM: 72 h; for viability at 10 µM: A375, compound at 10 μM; for EC50: A375 cell line, 72 h incubation, CellTiter-Glo, read-out: EC50, growth inhibition of A375
Summary of the method: (§2)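 Luminescent signal, normalised to diluent-treated cultures, defines % viability; EC50 is the concentration lowering it to 50%. Cells had been exposed to compound for 72 h at 37 °C in medium with 10% FBS, at a constant H2O or DMSO percentage.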

[3] = system: HCT-116 (colorectal carcinoma) cell line; assay: CellTiter-Glo luminescent cell viability assay, HCT-116; assay type: cell-based, human; settings: Homo sapiens; for viability at 4 µM: HCT-116, compound at 4 μM; for viability at 4 µM / viability at 10 µM: 72 h; for viability at 10 µM: HCT-116, compound at 10 μM; for EC50: HCT-116 cell line, 72 h incubation, CellTiter-Glo, read-out: EC50, growth inhibition of HCT-116
Summary of the method: as §2

[4] = system: Huh7 (hepatocellular carcinoma) cell line; assay: CellTiter-Glo luminescent cell viability assay, Huh7; assay type: cell-based, human; settings: Homo sapiens, Huh-7; for viability at 4 µM: Huh7, compound at 4 μM; for viability at 4 µM / viability at 10 µM: 72 h; for viability at 10 µM: Huh7, compound at 10 μM; for EC50: Huh7 cell line, 72 h incubation, CellTiter-Glo, read-out: EC50, growth inhibition of Huh7
Summary of the method: as §1

[5] = system: 786-O (renal adenocarcinoma) cell line; assay: CellTiter-Glo luminescent cell viability assay, 786-O; assay type: cell-based, human; settings: Homo sapiens, 786-0; for EC50: 786-O cell line, 72 h incubation, CellTiter-Glo, read-out: EC50, growth inhibition of 786-O; for viability at 4 µM / viability at 10 µM: 786-O, 72 h; for viability at 4 µM: compound at 4 μM; for viability at 10 µM: compound at 10 μM
Summary of the method: as §2

[6] = system: HepG2 (hepatocellular carcinoma) cell line; assay: CellTiter-Glo luminescent cell viability assay, HepG2; assay type: cell-based, human; settings: Homo sapiens; for viability at 4 µM / viability at 10 µM: HepG2, HepG, 72 h; for viability at 4 µM: compound at 4 μM; for viability at 10 µM: compound at 10 μM; for EC50: HepG2 cell line, 72 h incubation, CellTiter-Glo, read-out: EC50, growth inhibition of HepG2
Summary of the method: as §1

[7] = system: PANC-1 (prancreatic carcinoma) cell line; assay: CellTiter-Glo luminescent cell viability assay, PANC-1; assay type: cell-based; settings: Homo sapiens; for viability at 4 µM: PANC-1, 4 μM; for viability at 4 µM / viability at 10 µM: 72 h, % of signal of diluent-treated cultures; for viability at 10 µM: PANC-1, 10 μM; for EC50: PANC-1 cell line, 72 h incubation, CellTiter-Glo, read-out: EC50 (growth inhibition assay of PANC-1 cell line)
Summary of the method: as §1

Row | Structure (SMILES) | viability at 4 µM [1] | viability at 10 µM [1] | EC50 [1] | viability at 4 µM [2] | viability at 10 µM [2] | EC50 [2] | viability at 4 µM [3] | viability at 10 µM [3] | EC50 [3] | viability at 4 µM [4] | viability at 10 µM [4] | EC50 [4] | EC50 [5] | viability at 4 µM [5] | viability at 10 µM [5] | viability at 4 µM [6] | viability at 10 µM [6] | EC50 [6] | viability at 4 µM [7] | viability at 10 µM [7] | also measured
1 | CC(C)(C)NC1CCN(c2c(C#N)c(Nc3ccc(F)cc3)nc3ccccc23)CC1 [Compound 3260CN, 2-(4-fluorophenylamino)-3-cyano-4-[4-(tert-butylamino)piperidin-1-yl]quinoline] | 86.7% | 0.9% | 5 to 10 µM | 2.2% | 0.4% | 0.5 to 5 µM | 1.2% | 0.3% | 0.5 to 5 µM | 50.7% | 0.7% | 5 to 10 µM | 0.5 to 5 µM | 17.5% | 0.3% | 49.1% | 0.4% | 0.5 to 5 µM | 84.1% | 39.1% | EC50 [7]: 5 to 10 µM
2 | CC(C)(C)NC1CCN(c2c(C#N)c(Nc3cccc(F)c3)nc3ccccc23)CC1 [Compound 3262CN, 2-(3-fluorophenylamino)-3-cyano-4-[4-(tert-butylamino)piperidin-1-yl]quinoline] | 98.7% | 0.6% | 5 to 10 µM | 74.9% | 0.6% | 5 to 10 µM | 2.6% | 0.5% | 0.5 to 5 µM | 67.9% | 0.7% | 5 to 10 µM | 0.5 to 5 µM | 42.6% | 0.7% | 70.8% | 0.6% | 5 to 10 µM | 101% | 48% | 
3 | CC(C)(C)NC1CCN(c2c(C#N)c(Nc3ccc(F)c(F)c3)nc3ccccc23)CC1 [Compound 3264CN, 2-(3,4-difluorophenylamino)-3-cyano-4-[4-(tert-butylamino)piperidin-1-yl]quinoline] | 0.4% | 0.5% | 0.5 to 5 µM | 12.8% | 0.4% |  | 0.3% | 0.3% | 0.5 to 5 µM | 11.7% | 0.5% | 0.5 to 5 µM | 0.5 to 5 µM | 12.7% | 0.6% | 0.5% | 0.3% | 0.5 to 5 µM | 78.1% | 2.4% | 
4 | Cn1cc(Nc2nc3ccccc3c(N3CCC(NC(C)(C)C)CC3)c2C#N)cn1 [Compound 3268CN, 2-[(1-methyl-1H-pyrazol-4-yl)amino]-3-cyano-4-[4-(tert-butylamino)piperidin-1-yl]quinoline] | 91% | 77.6% |  | 61.8% | 11.3% |  | 73.7% | 22.6% |  | 94% | 64.8% |  |  | 109% | 80.1% | 68.6% | 56% |  | 95.8% | 43.6% | 
5 | Cc1nnc(Nc2nc3ccccc3c(N3CCC(NC(C)(C)C)CC3)c2C#N)o1 [Compound 3272CN, 2-[(5-methyl-1,3,4-oxadiazol-2-yl)amino]-3-cyano-4-[4-(tert-butylamino)piperidin-1-yl]quinoline] | 82.3% | 20.7% |  | 62.3% | 21.2% |  | 13.9% | 5% |  | 92.6% | 67.2% |  |  | 79% | 48.9% | 97.7% | 61.2% |  | 84.7% | 65.3% | 
6 | Cc1nc(Nc2nc3ccccc3c(N3CCC(NC(C)(C)C)CC3)c2C#N)n(C)n1 [Compound 3274CN, 2-[(1,3-dimethyl-1H-1,2,4-triazol-5-yl)amino]-3-cyano-4-[4-(tert-butylamino)piperidin-1-yl]quinoline] | 91.3% | 78.2% |  | 84.7% | 69.2% |  | 73.3% | 49.5% |  | 96.2% | 75% |  |  | 106% | 83.4% | 63.4% | 55.2% |  | 96.7% | 89.9% | 
7 | CC(C)(C)NC1CCN(c2c(C#N)c(Nc3ccccn3)nc3ccccc23)CC1 [Compound 3278CN, 2-(pyridin-2-ylamino)-3-cyano-4-[4-(tert-butylamino)piperidin-1-yl]quinoline] | 96.1% | 88.6% |  | 90.6% | 45.2% |  | 85.7% | 7.2% |  | 95% | 51% |  |  | 90.2% | 68.2% | 87.1% | 53.2% |  | 102% | 84.2% | 
8 | CC(C)(C)NC1CCN(c2c(C#N)c(Nc3ccncn3)nc3ccccc23)CC1 [Compound 3282CN, 2-(pyrimidin-4-ylamino)-3-cyano-4-[4-(tert-butylamino)piperidin-1-yl]quinoline] | 93.3% | 63.5% |  | 88.6% | 64.1% |  | 73.7% | 39.8% |  | 97.9% | 75.4% |  |  | 102% | 76.9% | 58.9% | 40.3% |  | 102% | 77.3% | 
9 | CC(C)(C)NC1CCN(c2c(C#N)c(Nc3cnccn3)nc3ccccc23)CC1 [Compound 3284CN, 2-(pyrazin-2-ylamino)-3-cyano-4-[4-(tertbutylamino)piperidin-1-yl]quinoline] | 102% | 78.3% |  | 88.3% | 64.9% |  | 83.4% | 27.4% |  | 95.3% | 79.2% |  |  | 89.8% | 61.9% | 90% | 68.4% |  | 96.3% | 69.4% | 
10 | CC(C)(C)NC1CCN(c2c(C#N)c(NCc3ccccc3)nc3ccccc23)CC1 [Compound 3286CN, 2-(benzylamino)-3-cyano-4-[4-(tert-butylamino)piperidin-1-yl]quinoline] | 90.4% | 60.5% | 5 to 10 µM | 54.5% | 0.2% | 0.5 to 5 µM | 7.6% | 0.1% | 5 to 10 µM | 75.4% | 0.4% | 5 to 10 µM | 5 to 10 µM | 73.5% | 2.4% | 85% | 0.4% | 5 to 10 µM | 101% | 54.8% | EC50 [7]: 5 to 10 µM
11 | Cc1ccc(CNc2nc3ccccc3c(N3CCC(NC(C)(C)C)CC3)c2C#N)cc1 [Compound 3288CN, 2-(4-methylbenzylamino)-3-cyano-4-[4-(tert-butylamino)piperidin-1-yl]quinoline] | 62.8% | 0.4% | 0.5 to 5 µM | 0.5% | 0.3% | 0.5 to 5 µM | 0.5% | 0.2% | 0.5 to 5 µM | 0.6% | 0.3% | 0.5 to 5 µM | 0.5 to 5 µM | 1.9% | 0.3% | 0.6% | 0.3% | 0.5 to 5 µM | 63.5% | 0.6% | EC50 [7]: 5 to 10 µM

— patent publication US10577362B2, “Substituted 2, 4-diamino-quinoline derivatives for use in the treatment of proliferative diseases” (GENOSCIENCE PHARMA, priority 2016, dated 2020)
